{"source": "paper PMC3182833", "about": "(Molecular microbiology, 2011)", "target": "T1, SoArsAB (Sporomusa ovata, UniProt F6MZ55+F6MZ56)", "T1 sequence (F6MZ55 1-350)": "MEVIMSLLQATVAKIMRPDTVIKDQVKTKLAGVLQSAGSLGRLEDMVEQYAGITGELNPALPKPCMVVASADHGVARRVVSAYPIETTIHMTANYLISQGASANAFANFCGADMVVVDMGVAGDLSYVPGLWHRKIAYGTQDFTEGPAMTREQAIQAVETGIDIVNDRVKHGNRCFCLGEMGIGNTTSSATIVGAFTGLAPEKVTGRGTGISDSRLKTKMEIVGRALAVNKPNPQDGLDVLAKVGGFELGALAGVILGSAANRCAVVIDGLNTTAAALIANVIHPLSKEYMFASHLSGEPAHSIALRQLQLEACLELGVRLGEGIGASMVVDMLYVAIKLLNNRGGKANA", "T1 sequence (F6MZ56 1-350)": "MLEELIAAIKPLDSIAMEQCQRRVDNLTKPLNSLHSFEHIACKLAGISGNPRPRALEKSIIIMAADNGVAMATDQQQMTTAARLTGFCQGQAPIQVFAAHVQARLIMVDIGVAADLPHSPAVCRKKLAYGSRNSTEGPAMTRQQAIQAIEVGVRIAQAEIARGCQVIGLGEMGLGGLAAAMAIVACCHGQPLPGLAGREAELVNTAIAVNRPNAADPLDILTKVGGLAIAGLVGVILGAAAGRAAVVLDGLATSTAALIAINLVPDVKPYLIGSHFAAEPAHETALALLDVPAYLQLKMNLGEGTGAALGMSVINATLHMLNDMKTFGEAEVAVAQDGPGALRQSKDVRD", "experiment": "product", "assay_type": "biochemical", "details": "NaMN co-substrate; 6 h incubation", "data": [{"smiles": "Cc1ccc(O)cc1", "note": "[P, p-cresol]", "values": [{"measurement": "product (alpha-p-cresolyl-ribotide) by RP-HPLC and ESI-MS", "value": "The product of SoArsAB when phenol, p-cresol, or DMB was used as substrate was purified"}]}]}
